Experimental data reported in patent US7163940B2, “Pyrazolopyridinyl pyrimidine therapeutic compounds” (SmithKline Beecham Corporation, priority 2000, dated 2007).
Where a name gives a salt, the structure may show the parent alone.

System: not given
Assay: not given
Details: not given

| SMILES | melting point [°C] |
| --- | --- |
| CN(C)Cc1cc(-c2c(-c3ccc(F)cc3)nn3c(Cl)cccc23)nc(NC2CCCC2)n1 [Example 50, 4-[7-Chloro-2-(4-fluorophenyl)pyrazolo[1,5-α]pyridin-3-yl]-N-cyclopentyl-6-[(dimethylamino)methyl]-2-pyrimidinamine] | 68 to 75 |

System: HSV-1
Assay: HSV-1 replication in infected Vero 76 cells, viral DNA hybridization capture assay
Format: cell-based
Details: Human alphaherpesvirus 1, Vero 76, HSV-1, Vero 76 cells, MOI=0.001, 40–48 hours incubation
Method in brief: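 Vero 76 cells infected with HSV-1 (MOI 0.001, 45 min, 37 °C), then incubated with compounds 40–48 h in 2% FBS medium. Viral DNA in NaOH/detergent lysates measured by hybridisation capture onto UL13 plasmid with digoxigenin-labelled UL15 probe, anti-digoxigenin-HRP chemiluminescence.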

| SMILES | IC50 [µM] |
| --- | --- |
| OCc1cc(-c2c(-c3ccc(F)cc3)nn3c(Cl)cccc23)nc(NC2CCCC2)n1 [Example 17, [6-[7-Chloro-2-(4-fluorophenyl)pyrazolo[1,5-α]pyridin-3-yl]-2-(cyclopentylamino)-4-pyrimidinyl]methanol] | 3 |
| CN1CCN(c2cccc3c(-c4cc(-c5ccccc5)nc(NC5CCCC5)n4)c(-c4ccc(F)cc4)nn23)CC1 [Example 19, N-Cyclopentyl-4-[2-(4-fluorophenyl)-7-(4-methyl-1-piperazinyl)pyrazolo[1,5-α]pyridin-3-yl]-6-phenyl-2-pyrimidinamine hydrochloride] | 2.5 |
| CN(C)Cc1cc(-c2c(-c3ccc(F)cc3)nn3c(Cl)cccc23)nc(NC2CCCC2)n1 [Example 50, 4-[7-Chloro-2-(4-fluorophenyl)pyrazolo[1,5-α]pyridin-3-yl]-N-cyclopentyl-6-[(dimethylamino)methyl]-2-pyrimidinamine] | 5 |
| Fc1ccc(-c2nn3c(NC4CCCC4)cccc3c2-c2ccncc2)cc1 [Example 28, N-cyclopentyl-2-(4-fluorophenyl)-3-(4-pyridinyl)pyrazolo[1,5-α]pyridin-7-amine] | 2 |
| C=CCNc1cccc2c(-c3ccnc(NCCCC)n3)c(-c3ccc(F)cc3)nn12 [Example 54, N-Allyl-3-[2-(butylamino)-4-pyrimidinyl]-2-(4-fluorophenyl)pyrazolo[1,5-α]pyridin-7-amine] | 0.5 |
| CCCCNc1nccc(-c2c(-c3ccc(F)cc3)nn3c(NC4CC4)cccc23)n1 [Example 33, 3-[2-(Butylamino)-4-pyrimidinyl]-N-cyclopropyl-2-(4-fluorophenyl)pyrazolo[1,5-α]pyridin-7-amine] | 0.2 |
| CC(C)c1nccc(-c2c(-c3ccc(F)cc3)nn3c(Cl)cccc23)n1 [Example 77, 7-Chloro-2-(4-fluorophenyl)-3-(2-isopropylpyrimidin-4-yl)pyrazolo[1,5-α]pyridine] | > 20 |
| CCCCNc1cccc2c(-c3ccnc(NC4CCCC4)n3)c(-c3ccc(F)cc3)nn12 [Example 6, N-Butyl-3-[2-(cyclopentylamino)-4-pyrimidinyl]-2-(4-fluorophenyl)pyrazolo[1,5-α]pyridin-7-amine] | 0.2 |
| CN(CC(=O)O)c1nccc(-c2c(-c3ccc(F)cc3)nn3c(NC4CCCC4)cccc23)n1 [Example 18, [{4-[7-(Cyclopentylamino)-2-(4-fluorophenyl)pyrazolo[1,5-α]pyridin-3-yl]-2-pyrimidinyl}(methyl)amino]acetic acid] | 20 |
| CN(C)c1nccc(-c2c(-c3ccc(F)cc3)nn3c(N4CCCC4)cccc23)n1 [Example 32, 4-[2-(4-Fluorophenyl)-7-(1-pyrrolidinyl)pyrazolo[1,5-α]pyridin-3-yl]-N,N-dimethyl-2-pyrimidinamine] | 5 |
| Fc1ccc(-c2nn3c(Br)cccc3c2-c2ccncc2)cc1 [Example 61, 7-Bromo-2-(4-fluorophenyl)-3-pyridin-4-ylpyrazolo[1,5-α]pyridine] | > 20 |
| O=C(NC1CCCC1)c1cc(-c2c(-c3ccc(F)cc3)nn3c(Cl)cccc23)nc(NC2CCCC2)n1 [Example 74, 6-[7-Chloro-2-(4-fluorophenyl)pyrazolo[1,5-α]pyridin-3-yl]-N-cyclopentyl-2-(cyclopentylamino)pyrimidine-4-carboxamide] | > 20 |
| Fc1ccc(-c2nn3c(Cl)cccc3c2-c2ccnc(NC3CCCC3)n2)cc1 [Example 26, 4-[7-Chloro-2-(4-fluorophenyl)pyrazolo[1,5-α]pyridin-3-yl]-N-cyclopentyl-2-pyrimidinamine] | 1.5 |
| Fc1ccc(-c2nn3c(N4CCCC4)cccc3c2-c2ccnc(NC3CCCC3)n2)cc1 [Example 31, N-Cyclopentyl-4-[2-(4-fluorophenyl)-7-(1-pyrrolidinyl)pyrazolo[1,5-α]pyridin-3-yl]-2-pyrimidinamine] | 1 |
| CCCCNc1cccc2c(-c3ccnc(N4CCN(CCOC)CC4)n3)c(-c3ccc(F)cc3)nn12 [Example 42, N-Butyl-2-(4-fluorophenyl)-3-{2-[4-(2-methoxyethyl)-1-piperazinyl]-4-pyrimidinyl}pyrazolo[1,5-α]pyridin-7-amine] | 10 |
| Nc1cccc2c(-c3ccnc(NC4CCCC4)n3)c(-c3ccc(F)cc3)nn12 [Example 21, 3-[2-(Cyclopentylamino)-4-pyrimidinyl]-2-(4-fluorophenyl)pyrazolo[1,5-α]pyridin-7-amine] | 1 |
